The target of the assay is T1, STAT6 (endogenous, HiBiT-tagged) in HeLa LgBiT clone 4.14 cells (Homo sapiens, UniProt P42226).
T1 construct: These cells express endogenous STAT6; host or cells: HeLa LgBiT clone 4.14
T1 sequence (P42226 1-847): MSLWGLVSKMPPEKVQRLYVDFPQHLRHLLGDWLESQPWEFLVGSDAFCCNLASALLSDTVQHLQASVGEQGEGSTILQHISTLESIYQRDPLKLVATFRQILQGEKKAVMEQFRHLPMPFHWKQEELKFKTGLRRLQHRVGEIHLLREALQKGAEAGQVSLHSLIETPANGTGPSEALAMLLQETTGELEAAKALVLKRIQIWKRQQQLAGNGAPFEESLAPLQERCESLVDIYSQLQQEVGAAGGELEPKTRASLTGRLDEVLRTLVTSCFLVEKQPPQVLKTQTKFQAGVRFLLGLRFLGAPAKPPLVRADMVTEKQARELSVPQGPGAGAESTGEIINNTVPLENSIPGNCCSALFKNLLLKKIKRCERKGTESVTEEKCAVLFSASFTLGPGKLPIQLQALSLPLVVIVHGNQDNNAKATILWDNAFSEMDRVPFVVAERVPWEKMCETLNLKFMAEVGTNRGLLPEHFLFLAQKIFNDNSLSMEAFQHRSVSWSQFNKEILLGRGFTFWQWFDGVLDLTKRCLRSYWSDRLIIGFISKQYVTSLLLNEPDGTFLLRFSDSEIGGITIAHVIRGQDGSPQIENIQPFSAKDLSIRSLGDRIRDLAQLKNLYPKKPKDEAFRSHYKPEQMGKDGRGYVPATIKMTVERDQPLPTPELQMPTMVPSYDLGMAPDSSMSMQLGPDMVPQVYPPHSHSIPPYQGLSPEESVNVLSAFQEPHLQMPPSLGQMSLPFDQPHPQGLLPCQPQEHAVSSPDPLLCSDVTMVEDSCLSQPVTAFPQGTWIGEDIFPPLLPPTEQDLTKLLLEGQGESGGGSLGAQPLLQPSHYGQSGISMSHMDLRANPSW
The assay can be described thus: STAT6 Degrader Assay (HiBiT based, HeLa LgBiT clone 4.14 cells, luminescence, DC50). The format is cell-based. To be noted: geometric mean; for Emax: Emax provided for test compounds with <80% Emax (and 2c15), read-out: STAT6 degradation Emax; for DC50: DC50 provided for test compounds with >80% Emax, read-out: STAT6 degradation DC50. As for the experimental part:
This was a HiBit based assay. A HeLa cell line stably transfected with a small protein, LgBit (Large Bit) was obtained from Promega. These cells express endogenous STAT6. A small 11 amino acid gene sequence (HiBiT) was inserted in the STAT6 gene using CRISPR technology. Once STAT6 protein is expressed in the cells, the HiBiT sequence will bind the LgBit in the cells resulting in a functional NanoBiT protein, giving a luminescent tag to STAT6. Single cell clones were prepared and the clone 4.14 was selected for the assay based on that clone showing high luminescence, high STAT6 phosphorylation upon stimulation with IL-4, and inhibition of luminescence when cells were treated with STAT6 siRNA. HeLa LgBiT clone 4.14 cells were suspended in DMEM with 10% FCS, 1% Pen/Strep, Na-pyrovate and Hygromycin B, at a concentration of […]. 5000 cells were added pr well of a 384 well plate and 20 nL of compound was added by Echo® liquid handler. NN6394A (terfenadine, a toxic compound) was added to control wells at 50 µM concentration to establish the assay window. In these wells the cells are dead which equals 100% degradation of STAT6. After 4-24 h of incubation at 37° C. under 5% CO2/95% air, […] substrate (Nano-GLO®) was added to the wells and the plates were centrifuged and incubated for 0.5 h. The luminescence in the wells as a measure of non-degraded STAT6 was measured in a plate reader (BMG Pherastar FSX). The dose-response curves for Examples 2a2, 2t1, 2 h3, and 2r1 are shown below (where percent degradation is plotted vs. test compound concentration in M on a log-scale).
On the technique in general: The HiBiT peptide binds its large partner to form an active luciferase.

SMILES strings stand for the structures.

A word on the Emax: it is the greatest response seen or fitted, relative to the assay's reference. Usually DC50 stands for the concentration giving 50% degradation.

`COCc1nc2cc(-c3ccnc4c3cc(CN3CCC(c5ccc(C(=O)N6CCC(CN7CCN(c8ccc(NC9CCC(=O)NC9=O)cc8F)C[C@@H]7C)CC6)cc5)CC3)n4C)ccc2[nH]1` (stereo partly drawn) [Example 2f4, 3-((3-fluoro-4-((S)-4-((1-(4-(1-((4-(2-(methoxymethyl)-1H-benzo[d]imidazol-5-yl)-1-methyl-1H-pyrrolo[2,3-b]pyridin-2-yl)methyl)piperidin-4-yl)benzoyl)piperidin-4-yl)methyl)-3-methylpiperazin-1-yl)phenyl)-amino)piperidine-2,6-dione]: the Emax fell in the range of 50 to 60%. Still for that read-out and setting: then `C[C@H]1CN(c2ccc(NC3CCC(=O)NC3=O)cc2F)CCN1CC1CCN(C(=O)c2ccc(C3CCN(Cc4cc5c(-c6ccc7[nH]ncc7c6)ccnc5n4C)CC3)cc2)CC1` (stereo partly drawn) [Example 2f5, 3-((4-((S)-4-((1-(4-(1-((4-(1H-indazol-5-yl)-1-methyl-1H-pyrrolo[2,3-b]pyridin-2-yl)methyl)piperidin-4-yl)benzoyl)piperidin-4-yl)methyl)-3-methylpiperazin-1-yl)-3-fluorophenyl)amino)piperidine-2,6-dione], with 50 to 60%.

In the case of `C[C@@H]1CN(c2ccc(NC3CCC(=O)NC3=O)cc2F)CCN1CC1CCN(C(=O)c2ccc(C3CCN(Cc4cc5c(-c6ccc(N)nc6)ccnc5n4C)CC3)cc2)CC1` (stereo partly drawn) [Example 2f6, 3-((4-((R)-4-((1-(4-(1-((4-(6-aminopyridin-3-yl)-1-methyl-1H-pyrrolo[2,3-b]pyridin-2-yl)-methyl)-piperidin-4-yl)benzoyl)piperidin-4-yl)methyl)-3-methylpiperazin-1-yl)-3-fluorophenyl)amino)-piperidine-2,6-dione], the DC50 is 38.8 nM. For `COCc1nc2cc(-c3ccnc4c3cc(CN3CCC(c5ccc(C(=O)N6CCC(CN7CCN(c8ccc(NC9CCC(=O)NC9=O)cc8F)C[C@H]7C)CC6)cc5)CC3)n4C)ccc2[nH]1` (stereo partly drawn) [Example 2f7, 3-((3-fluoro-4-((R)-4-((1-(4-(1-((4-(2-(methoxymethyl)-1H-benzo[d]imidazol-5-yl)-1-methyl-1H-pyrrolo[2,3-b]pyridin-2-yl)methyl)piperidin-4-yl)benzoyl)piperidin-4-yl)methyl)-3-methylpiperazin-1-yl)phenyl)-amino)piperidine-2,6-dione], the DC50 amounted to 6.6 nM. The same measure, in the same setting: then `C[C@@H]1CN(c2ccc(NC3CCC(=O)NC3=O)cc2F)CCN1CC1CCN(C(=O)c2ccc(C3CCN(Cc4cc5c(-c6ccc7[nH]ncc7c6)ccnc5n4C)CC3)cc2)CC1` (stereo partly drawn) [Example 2f8, 3-((4-((R)-4-((1-(4-(1-((4-(1H-indazol-5-yl)-1-methyl-1H-pyrrolo[2,3-b]pyridin-2-yl)methyl)-piperidin-4-yl)benzoyl)piperidin-4-yl)methyl)-3-methylpiperazin-1-yl)-3-fluorophenyl)amino)piperidine-2,6-dione], with 19.1 nM.

For the compound `Cn1c(CN2CCC(c3ccc(C(=O)N4CCC(CN5CCC(n6ncc7c(NC8CCC(=O)NC8=O)cccc76)CC5)CC4)cc3)CC2)cc2c(-c3ccc4[nH]ncc4c3)ccnc21` (stereo not shown) [Example 2g1, 3-((1-(1-((1-(4-(1-((4-(1H-indazol-5-yl)-1-methyl-1H-pyrrolo[2,3-b]pyridin-2-yl)methyl)-piperidin-4-yl)benzoyl)piperidin-4-yl)methyl)piperidin-4-yl)-1H-indazol-4-yl)amino)piperidine-2,6-dione], the Emax was less than 20%. For `C[C@@H](c1cc2c(-c3ccc(N)nc3)ccnc2n1C)N1CCC(c2ccc(C(=O)N3CCN(CC4CCN(c5ccc(NC6CCC(=O)NC6=O)cc5F)CC4)CC3)cc2)CC1` (stereo partly drawn) [Example 2g63, 3-((4-(4-((4-(4-(1-((S)-1-(4-(6-aminopyridin-3-yl)-1-methyl-1H-pyrrolo[2,3-b]pyridin-2-yl)ethyl)piperidin-4-yl)benzoyl)piperazin-1-yl)methyl)piperidin-1-yl)-3-fluorophenyl)amino)piperidine-2,6-dione], the DC50 worked out at 48.3 nM. The same measure, in the same setting: then `Cn1c(CN2CCC(c3ccc(C(=O)N4CCC(CN5CCC(N6CCC(c7ccc(NC8CCC(=O)NC8=O)cc7F)CC6)C(F)(F)C5)CC4)cc3)CC2)cc2c(-c3ccc4[nH]ncc4c3)ccnc21` (stereo not shown) [Example 2h1, 3-((4-(1′-((1-(4-(1-((4-(1H-indazol-5-yl)-1-methyl-1H-pyrrolo[2,3-b]pyridin-2-yl)methyl)-piperidin-4-yl)benzoyl)piperidin-4-yl)methyl)-3′, 3′-difluoro-[1,4′-bipiperidin]-4-yl)-3-fluorophenyl)-amino)piperidine-2,6-dione], with 66.3 nM; and `Cn1c(CN2CCC(c3ccc(C(=O)N4CCC(CN5CCC(N6CCC(c7ccc(NC8CCC(=O)NC8=O)cc7F)CC6)C(F)(F)C5)CC4)cc3)CC2)cc2c(-c3ccc(N)nc3)ccnc21` (stereo not shown) [Example 2h2, 3-((4-(1′-((1-(4-(1-((4-(6-aminopyridin-3-yl)-1-methyl-1H-pyrrolo[2,3-b]pyridin-2-yl)-methyl)piperidin-4-yl)benzoyl)piperidin-4-yl)methyl)-3′, 3′-difluoro-[1,4′-bipiperidin]-4-yl)-3-fluoro-phenyl)amino)piperidine-2,6-dione], with 133 nM. Still for that read-out and setting: then `COCc1nc2cc(-c3ccnc4c3cc(CN3CCC(c5ccc(C(=O)N6CCC(CN7CCC(N8CCC(c9ccc(NC%10CCC(=O)NC%10=O)cc9F)CC8)C(F)(F)C7)CC6)cc5)CC3)n4C)ccc2[nH]1` (stereo not shown) [Example 2h3, 3-((4-(3′, 3′-difluoro-1′-((1-(4-(1-((4-(2-(methoxymethyl)-1H-benzo[d]imidazol-5-yl)-1-methyl-1H-pyrrolo[2,3-b]pyridin-2-yl)methyl)piperidin-4-yl)benzoyl)piperidin-4-yl)methyl)-[1,4′-bipiperidin]-4-yl)-3-fluorophenyl)amino)piperidine-2,6-dione], with 54.8 nM. `COc1cc(N2CCN(CC3CCN(C(=O)c4ccc(C5CCN(Cc6cc7c(-c8ccc9[nH]ncc9c8)ccnc7n6C)CC5)cc4)CC3)CC2)c(F)cc1NC1CCC(=O)NC1=O` (stereo not shown) [Example 2i1, 3-((4-(4-((1-(4-(1-((4-(1H-indazol-5-yl)-1-methyl-1H-pyrrolo[2,3-b]pyridin-2-yl)methyl)-piperidin-4-yl)benzoyl)piperidin-4-yl)methyl)piperazin-1-yl)-5-fluoro-2-methoxyphenyl)amino)-piperidine-2,6-dione]: the maximal effect (Emax) was 40 to 50%. The same measure, in the same setting: to `COCc1nc2cc(-c3ccnc4c3cc([C@H](C)N3CCC(c5ccc(C(=O)N6CCC(CN7CCN(c8ccc(NC9CCC(=O)NC9=O)cc8C#N)CC7)CC6)cc5)CC3)n4C)ccc2[nH]1` (stereo partly drawn) [Example 2i2, 5-((2,6-dioxopiperidin-3-yl)amino)-2-(4-((1-(4-(1-((S)-1-(4-(2-(methoxymethyl)-1H-benzo[d]-imidazol-5-yl)-1-methyl-1H-pyrrolo[2,3-b]pyridin-2-yl)ethyl)piperidin-4-yl)benzoyl)piperidin-4-yl)methyl)-piperazin-1-yl)benzonitrile] belongs 30 to 40%; to `C[C@@H](c1cc2c(-c3ccc(N)nc3)ccnc2n1C)N1CCC(c2ccc(C(=O)N3CCC(CN4CCN(c5ccc(NC6CCC(=O)NC6=O)cc5C#N)CC4)CC3)cc2)CC1` (stereo partly drawn) [Example 2i3, 2-(4-((1-(4-(1-((S)-1-(4-(6-aminopyridin-3-yl)-1-methyl-1H-pyrrolo[2,3-b]pyridin-2-yl)-ethyl)-piperidin-4-yl)benzoyl)piperidin-4-yl)methyl)piperazin-1-yl)-5-((2,6-dioxopiperidin-3-yl)amino)-benzonitrile], 30 to 40%.
